Data: article PMC5949855 (2015)

How the values were obtained:
[1] = tested on: HT21 (DNA, G4) GGGTTAGGGTTAGGGTTAGGG; experiment: ITC; settings: for K a1: two-event model, high-affinity site
[2] = tested on: HT21 (DNA, G4) GGGTTAGGGTTAGGGTTAGGG; experiment: UV melting; settings: NH4+ 30 mM, compound concentration not given in material
[3] = tested on: HT21 (DNA, G4) GGGTTAGGGTTAGGGTTAGGG; experiment: UV melting, 295 nm; settings: no monovalent cation added; compound concentration not given in material
[4] = tested on: L-HT21 (L-DNA, G4, all nucleotides L-DNA (enantiomer of HT21)) GGGTTAGGGTTAGGGTTAGGG; experiment: CD; settings: NH4+ 30 mM; mirror image CD of the HT21 complex
[5] = NH4+ 30 mM, 20 mM MOPS pH 6.5, 298 K
[6] = value given for CuL1-CuL4 together

Row | Compound | K a1 [1, 5] | ΔTm [2, 6] | ΔTm [2] | further results
1 | O=[N+]([O-])[O-].O=[N+]([O-])[O-].[Cu+2].c1ccc(-c2cc(-c3ccc(OCCN4CCCC4)cc3)cc(-c3ccccn3)n2)nc1 | (1.7 ± 0.2) × 10^7 M^–1 | ~ 20 °C | – | ΔTm [3]: ~ 13 °C; Ka ([1]; no monovalent cation added, 298 K, three-event model, first (strongest) event): (1.5±0.6)E8 M^-1; binding [4]: yes
2 | O=[N+]([O-])[O-].O=[N+]([O-])[O-].[Cu+2].c1ccc(-c2cc(-c3ccc(OCCN4CCCCC4)cc3)cc(-c3ccccn3)n2)nc1 | (1.7 ± 0.3) × 10^7 M^–1 | ~ 20 °C | – | –
3 | O=[N+]([O-])[O-].O=[N+]([O-])[O-].[Cu+2].c1ccc(-c2cc(-c3ccc(OCCN4CCOCC4)cc3)cc(-c3ccccn3)n2)nc1 | (1.7 ± 0.3) × 10^7 M^–1 | ~ 20 °C | – | –

Continued, in another order:

Row | K a1 [1, 5] | ΔTm [2, 6] | ΔTm [2] | Compound | further results
4 | (1.7 ± 0.3) × 10^7 M^–1 | ~ 20 °C | – | CN(C)CCOc1ccc(-c2cc(-c3ccccn3)nc(-c3ccccn3)c2)cc1.O=[N+]([O-])[O-].O=[N+]([O-])[O-].[Cu+2] | –
5 | – | – | ~ 10 °C | Cc1ccc(-c2cc(-c3ccccn3)nc(-c3ccccn3)c2)cc1.O=[N+]([O-])[O-].O=[N+]([O-])[O-].[Cu+2] | Ka ([1]; NH4+ 30 mM, 20 mM MOPS pH 6.5, 298 K, one-event binding model): (2.0 ± 0.5) × 10^5 M^–1
6 | – | – | ~ 5 °C | O=[N+]([O-])[O-].O=[N+]([O-])[O-].[Cu+2].c1ccc(-c2cccc(-c3ccccn3)n2)nc1 | binding ([1]; NH4+ 30 mM, 20 mM MOPS pH 6.5, 298 K, affinity too low to be determined): weak
